Results from publication PMC6151961 (Journal of Enzyme Inhibition and Medicinal Chemistry, 2018).

Target: T1, CA IX (Homo sapiens, UniProt Q16790)
Assay: biochemical
Settings: not given

Row | SMILES | log10 of Ki in nM
1 | CC(=O)OC[C@H]1O[C@@H](n2cc(-c3ccc(S(N)(=O)=O)cc3)nn2)[C@H](OC(C)=O)[C@@H](OC(C)=O)[C@@H]1OC(C)=O [A1660] | 2.079
2 | COC(=O)[C@H]1O[C@@H](n2cc(COC(=O)c3ccc(S(N)(=O)=O)cc3)nn2)[C@H](OC(C)=O)[C@@H](OC(C)=O)[C@@H]1OC(C)=O [A1674] | 2.097
3 | CCCCCOS(N)(=O)=O [A1675] | 2.100
4 | CC(=O)NNc1ccccc1S(N)(=O)=O [A1755] | 2.243
5 | NS(=O)(=O)c1ccc(C(=O)NCc2cn([C@@H]3O[C@H](CO)[C@H](O)[C@H](O)[C@H]3O)nn2)cc1 [A1960] | 2.556
6 | CCOC(=O)c1cc(O)ccc1O [A2120] | 2.934
7 | NS(=O)(=O)OCCCCOS(N)(=O)=O [A2532] | 4.732
8 | CC(=O)OC[C@H]1O[C@@H]([S+]([O-])Cc2cn(-c3ccc(S(N)(=O)=O)cc3)nn2)[C@H](OC(C)=O)[C@@H](OC(C)=O)[C@H]1OC(C)=O (stereo partly drawn) [B0152] | 0.886
9 | CC(=O)OC[C@H]1O[C@@H]([S+]([O-])Cc2cn(-c3ccc(S(N)(=O)=O)cc3)nn2)[C@H](OC(C)=O)[C@@H](OC(C)=O)[C@@H]1OC(C)=O (stereo partly drawn) [B0212] | 0.996
10 | NS(=O)(=O)c1ccc(NC(=O)Cn2ccc(=O)c(S(N)(=O)=O)c2)cc1 [B0371] | 1.491
11 | COc1ccc2c(=O)n(-c3ccc(S(N)(=O)=O)cc3)c(S)nc2c1 [B0440] | 1.653
12 | NOC(=O)c1cc(Cl)c(Cl)c(C(=O)ON)c1 [B0452] | 1.699

Same assay, conditions: experimental value from the library Ki (IDs A…, B…); values equal log10 of Ki in nM

Row | SMILES | log10 of Ki in nM
13 | COc1cccc(C(=O)CN2C(=O)C=C(C)OS2(=O)=O)c1 [A1737] | 2.207
14 | COc1ccc2c(c1)/C(=N/c1ccc(C(=O)Nc3ccc(S(N)(=O)=O)cc3)cc1)C(=O)N2 [A1756, reference compound] | 2.243
15 | CCCN(CCC)S(=O)(=O)c1ccc(C(=O)Nc2ccccc2[N+](=O)[O-])cc1 [A1771] | 2.283
16 | CCCN(CCC)S(=O)(=O)c1ccc(C(=O)N[C@@H](CS)C(=O)O)cc1 [A1793] | 2.305
17 | NS(=O)(=O)c1ccc(NC(=O)c2ccc(/N=C3\C(=O)Nc4ccc([N+](=O)[O-])cc43)cc2)cc1 [A1847] | 2.375
18 | CCCCC(=O)OC[C@H]1O[C@@H](n2cc(-c3ccc(S(N)(=O)=O)cc3)nn2)[C@H](OC(=O)CCCC)[C@@H](OC(=O)CCCC)[C@H]1OC(=O)CCCC [A1944] | 2.525
19 | NS(=O)(=O)c1ccc(NC(=O)N2CCN(CCO)CC2)cc1 [A1995] | 2.639
20 | NS(=O)(=O)c1ccc(CNC(=O)CCCNC(=O)NCc2ccccc2)cc1 [A2003] | 2.660
21 | COc1ccc(-c2cnc(C3CCC3)o2)cc1S(N)(=O)=O [B0034] | 0.491
22 | NS(=O)(=O)c1ccc(-c2cnc(C3CCC3)o2)cc1 [B0121] | 0.813
23 | NS(=O)(=O)c1ccc(-c2cnc(C3CCC3)o2)s1 [B0649] | 2.193

Same assay, conditions: experimental value from the library Ki (IDs A…, B…); values equal log10 of Ki in nM; read-out: pKi (exp.) (converted)

Row | SMILES | Ki [nM]
24 | CC(=O)[C@H]1NN(c2ccccc2)[C@H]([C@H](C#N)C(=O)Nc2ccc(S(N)(=O)=O)cc2)S1 [A0013] | 0.33
25 | CN1N[C@@H](S(N)(=O)=O)S[C@H]1NC(=O)CCSSCCC(=O)/N=c1\sc(S(N)(=O)=O)nn1C [A0620] | 9.29
26 | Nc1nc(N)c2nc(CNCCc3ccc(S(=O)(=O)O)cc3)cnc2n1 [A2175] | 1000

Same assay, conditions: experimental value used for the QSPR model, library compounds (IDs A…, B…); equals log10 of Ki in nM

Row | SMILES | log10 of Ki in nM
27 | Cc1ccc(-n2c(=S)[nH]c3c(c(-c4ccc(Br)cc4)cn3-c3ccc(S(N)(=O)=O)cc3)c2=N)cc1 [A1740] | 2.210
28 | CCCCC(=O)OC[C@H]1O[C@@H](n2cc(-c3ccc(S(N)(=O)=O)cc3)nn2)[C@H](OC(=O)CCCC)[C@@H](OC(=O)CCCC)[C@@H]1OC(=O)CCCC [A2148] | 2.978
29 | NS(=O)(=O)c1ccc2nc(-n3cc(C=O)c(-c4ccc(F)cc4)n3)sc2c1 [A2181] | 3.009
30 | Cc1ccc(NC(=S)NNC(=O)c2ccccc2O)cc1 [A2191] | 3.095
31 | Oc1ccccc1/C=N/CCCC/N=C/c1ccccc1O [A2462] | 4.021
32 | NS(=O)(=O)c1ccc(-n2cc(-c3ccc(Br)cc3)c3c2ncn2nc4c5ccccc5nc-4nc32)cc1 [B0025] | 0.431
33 | CC(=O)N1C(=O)/C(=N\n2cnc3c(c(-c4ccc(Br)cc4)cn3-c3ccc(S(N)(=O)=O)cc3)c2=N)c2ccccc21 [B0037] | 0.491
34 | NS(=O)(=O)c1ccc(NC2=NC(=O)/C(=N/Nc3ccc(Cl)cc3)S2)cc1 [B0138] | 0.863
35 | NS(=O)(=O)c1cc(-c2cnc(C3CC3)o2)cs1 [B0238] | 1.114
36 | NS(=O)(=O)c1cc(-c2cnc(C(=O)N3CCOCC3)o2)cs1 [B0343] | 1.447
37 | Cc1ccc2c(c1)/C(=N\c1ccc(C(=O)Nc3ccc(S(N)(=O)=O)cc3)cc1)C(=O)N2 [B0670] | 2.303
38 | CC1(C)CC(=O)C2=C(C1)N(c1ccc(S(N)(=O)=O)cc1)C1=C(C(=O)CC(C)(C)C1)C2c1ccc([N+](=O)[O-])cc1 [B0775] | 3.009
39 | Cc1cc(C)oc(=O)c1 [B0786] | 3.393
40 | O=NCc1c(O)ccc(-c2ccc(O)cc2)c1Cl [B0828] | 3.780

Same assay, conditions: experimental value used for the QSPR model, library compounds (IDs A…, B…); equals log10 of Ki in nM; read-out: pKi (exp.) (converted)

Row | SMILES | Ki [nM]
41 | NS(=O)(=O)Nc1ccc(NC(=O)Nc2ccc(Cl)cc2)cc1 [A0149] | 3
42 | O=C(Cc1ccccc1Br)Oc1ccc2c(c1)OS(=O)(=O)C=C2 [A2451] | 10000

Same assay, conditions: library compounds with IDs A… and B…; from observed Ki (nM)

Row | SMILES | log10 of Ki in nM
43 | NS(=O)(=O)c1ccc2nc(-n3cc(/C=N/O)c(-c4ccc([N+](=O)[O-])cc4)n3)sc2c1 [A1655] | 2.076
44 | Cc1c(C(=O)N2CCN(C)CC2)cc(-c2ccc3ccccc3c2)n1-c1ccc(S(N)(=O)=O)cc1 [A1687] | 2.124
45 | NS(=O)(=O)c1ccc(CNC(=O)Cc2ccccc2)cc1 [A1701] | 2.134
46 | COc1ccc(NC(=S)Nc2c(C#N)c(-c3ccc(Br)cc3)cn2-c2ccc(S(N)(=O)=O)cc2)cc1 [A1714] | 2.149
47 | CCCN(CCC)S(=O)(=O)c1ccc(C(=O)NCC)cc1 [A1724] | 2.179
48 | NS(=O)(=O)c1ccc(/N=c2\scc(-c3ccc(Br)cc3)n2C2CCCCC2)cc1 [A1905] | 2.442
49 | Cc1ccc(-c2cnc(C3CC3)o2)cc1S(N)(=O)=O [A1938] | 2.502
50 | CC1(C)CC(=O)C2=C(C1)N(c1ccc(S(N)(=O)=O)cc1)C1=C(C(=O)CC(C)(C)C1)C2c1cccc([N+](=O)[O-])c1 [A1986] | 2.623
51 | Cc1cc(C)cc(NC(=O)Nc2ccc3c(C)cc(=O)oc3c2)c1 [A2046] | 2.785
52 | NC(=S)NNC(=O)c1ccncc1 [A2157] | 2.988
53 | C=CCOc1cc(=S)oc2ccccc12 [A2239] | 3.483
54 | CC(C)(C)OC(=O)N(CCCCN(CCCNC(=O)C(F)(F)F)C(=O)OC(C)(C)C)CCCNC(=O)C(F)(F)F [A2554] | 5.093
55 | NS(=O)(=O)c1ccc(-n2cc(-c3ccc(Br)cc3)c3c2ncn2nnnc32)cc1 [B0028] | 0.447
56 | COc1ccc2c(c1)/C(=N\NC(=O)c1cnn(-c3ccc(S(N)(=O)=O)cc3)c1-c1ccccc1)C(=O)N2 [B0041] | 0.519
57 | N#Cc1c(-c2ccc(Br)cc2)cn(-c2ccc(S(N)(=O)=O)cc2)c1NC(=O)c1ccc(Br)cc1 [B0101] | 0.724
58 | COc1ccc2c(c1)/C(=N\c1ccc(NC(=O)Nc3ccc(S(N)(=O)=O)cc3)cc1)C(=O)N2 [B0174] | 0.929
59 | Cc1ccc(-c2cnc(C3CC3)o2)cc1S(N)(=O)=O [B0710] | 2.502

Same assay, conditions: library compounds with IDs A… and B…; from observed Ki (nM); read-out: pKi (exp.) (converted)

Row | SMILES | Ki [nM]
60 | N#C[C@H]1C(COc2ccc(S(N)(=O)=O)cc2)=NON1O [A0707] | 11.3
61 | CC(C)CCC[C@@H](C)[C@H]1CC[C@@H]2[C@@H]1CC[C@H]1[C@H]2CC=C2C[C@@H](OS(N)(=O)=O)CC[C@@]21C [A2177] | 1000

Same assay, conditions: read-out: pKi (exp.) (converted)

Row | SMILES | Ki [nM]
62 | NS(=O)(=O)c1nnc(NC(=O)[C@]23C[C@H]4C[C@H](C[C@H](C4)C2)C3)s1 [A0389] | 6.4
63 | C[C@H](Nc1nc(NCc2ccc(S(N)(=O)=O)cc2)nc(N[C@H](C)C(=O)O)n1)C(=O)O [A0552] | 8.49
64 | NS(=O)(=O)c1ccc(C(=O)NNC(=O)Nc2ccc([C@]34C[C@H]5C[C@H](C[C@H](C5)C3)C4)cc2)cc1 [A0952] | 24
65 | CCOC(=O)c1cc(S(N)(=O)=O)c(SSc2cc(Cl)c(C(=O)OCC)cc2S(N)(=O)=O)cc1Cl [A2456] | 10000

Target: T1, CA IX
Assay: not given
Settings: library compounds with IDs A… and B…; observed Ki; ref ChEMBL, BindingDB; read-out: Ki; cited from earlier work

Row | SMILES | Ki [nM]
66 | N#C[C@H]1C(COc2ccc(S(N)(=O)=O)cc2)=NON1O [A0707] | 11.3

Same assay, conditions: observed Ki of library compounds (IDs A…, B…); ref ChEMBL and BindingDB; read-out: Ki; cited from earlier work

Row | SMILES | Ki [nM]
67 | CC(=O)[C@H]1NN(c2ccccc2)[C@H]([C@H](C#N)C(=O)Nc2ccc(S(N)(=O)=O)cc2)S1 [A0013] | 0.33
68 | NS(=O)(=O)Nc1ccc(NC(=O)Nc2ccc(Cl)cc2)cc1 [A0149] | 3
69 | CN1N[C@@H](S(N)(=O)=O)S[C@H]1NC(=O)CCSSCCC(=O)/N=c1\sc(S(N)(=O)=O)nn1C [A0620] | 9.3

Same assay, conditions: read-out: Ki; cited from earlier work

Row | SMILES | Ki [nM]
70 | NS(=O)(=O)c1nnc(NC(=O)[C@]23C[C@H]4C[C@H](C[C@H](C4)C2)C3)s1 [A0389] | 6.4
71 | C[C@H](Nc1nc(NCc2ccc(S(N)(=O)=O)cc2)nc(N[C@H](C)C(=O)O)n1)C(=O)O [A0552] | 8.5
72 | NS(=O)(=O)c1ccc(C(=O)NNC(=O)Nc2ccc([C@]34C[C@H]5C[C@H](C[C@H](C5)C3)C4)cc2)cc1 [A0952] | 24
